Values of other authors, collected in patent US9272037B2, “Method to treat premature ejaculation in humans” (priority 2005, dated 2016).

What was measured:
[1] = target: phosphodiesterase type 5 (PDE5) (Homo sapiens, UniProt O76074); details: PDE5 versus PDE6
[2] = oral, Viagra formulation
μ-opiate receptors = μ-opiate receptors (Homo sapiens, UniProt P35372)
[3] = for accumulation during multiple dose treatment: multiple dose treatment with tramadol
[4] = single oral dose of tramadol 100 mg
child = details: inadvertent administration of 4 mg/kg to a child

μ-opiate receptors, sequence (P35372 whole entry): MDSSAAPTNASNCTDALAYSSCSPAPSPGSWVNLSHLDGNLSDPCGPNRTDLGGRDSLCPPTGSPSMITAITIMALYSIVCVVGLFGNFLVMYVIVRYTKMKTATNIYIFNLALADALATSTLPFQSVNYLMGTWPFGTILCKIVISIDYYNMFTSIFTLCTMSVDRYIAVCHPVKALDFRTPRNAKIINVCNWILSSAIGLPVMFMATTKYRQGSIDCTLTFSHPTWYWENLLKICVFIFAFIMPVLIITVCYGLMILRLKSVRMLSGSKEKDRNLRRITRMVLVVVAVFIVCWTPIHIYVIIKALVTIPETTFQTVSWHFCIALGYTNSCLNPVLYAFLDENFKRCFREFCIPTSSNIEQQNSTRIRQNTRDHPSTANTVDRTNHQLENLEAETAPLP

In the case of `Cn1c(=O)c2c(ncn2C)n(C)c1=O` [caffeine, 3,7-dihydro-1,3,7-trimethyl-1H-purine-2,6-dione], the “time to maximal plasma concentrations” value (after oral, rectal or parenteral administration) is given as at most 1 h, the half-life in plasma (in vivo) is given as 3 to 7 h and the “amount needed to affect sleep significantly” value (humans) is given as “more than 200 mg”.

In the case of `CCCc1nn(C)c2c(=O)[nH]c(-c3cc(S(=O)(=O)N4CCN(C)CC4)ccc3OCC)nc12` [sildenafil, 1-[[3-(6,7-dihydro-1-methyl-7-oxo-3-propyl-1H-pyrazolo[4,3-d]pyrimidin-5-yl)-4-ethoxyphenyl]sulfonyl]-4-methyl piperazine], the “potency for PDE5 compared to PDE6” value [1] is listed as “about 10 fold” and the absolute bioavailability [2] is listed as “about 40%”.

For `COc1cccc(C2(O)CCCCC2CN(C)C)c1` (racemic) [tramadol, (+/−)-trans (RR,SS)-2-[(di-methylamino)methyl]-1-(3-methoxyphenyl)cyclohexanol], the “affinity for μ-opiate receptors, fold less than codeine” value (μ-opiate receptors; versus codeine) is given as 10 fold, the “affinity for μ-opiate receptors, fold less than d-propoxyphene” value (μ-opiate receptors; versus d-propoxyphene) is given as 100 fold and the “affinity for μ-opiate receptors relative to dextromethorphan” value (μ-opiate receptors; versus dextromethorphan) is given as “equivalent to dextromethorphan”. For the same molecule, the “affinity for μ-opiate receptors, fold less than morphine” value (μ-opiate receptors; versus morphine) was 6,000 fold, the “accumulation during multiple dose treatment” value [3] was “approximately 2 fold” and the “time to peak serum concentrations” value ([3]; oral administration) was at most 2 h. For the same molecule, the “duration of the analgesic effect” value [4] was “about 6 hours” and the “adverse event after overdose” value (child) was “seizure activity”.

In the case of `CN(C)C[C@H]1CCCC[C@]1(O)c1cccc(O)c1` [O-desmethyltramadol (M1), O-desmethyltramadol], the “accumulation during multiple dose treatment” value [3] is listed as “approximately 2 fold” and the half-life ([3]; single oral dose of 100 mg tramadol) is listed as 9 h.
